Assay results published in US12060588B2, “Methods of editing DNA methylation” (Whitehead Institute for Biomedical Research, priority 2016, dated 2024).

Test system: Snrpn promoter region (Dazl-Snrpn-GFP reporter)
Assay: Activation of the Dazl-Snrpn-GFP methylation reporter in mESCs (flow cytometry)
Assay type: cell-based, mouse
Settings: lentiviral infection, 3 days, FACS
Method: FIGS. 1A-IF depict activation of the Daz1-Snrpn-GFP reporter by dCas9-Tet1. […] FIG. 1B is a schematic representation of targeting the Snrpn promoter region by dCas9-Tet1 with specific gRNAs to erase methylation and activate GFP expression. […] Percentage of GFP positive cells were calculated by flow cytometric analysis of these cells 3-day post infection, and shown as the mean percentages of GFP positive cells±SD of two biological replicates. Note that the percentages of GFP-positive cells are expressed as the fraction of infected Cherry-positive cells. […] Scale bar: 250 um. Right: provides percentages of GFP positive colonies were quantified, and shown as the mean percentages of GFP positive cells±SD of two biological replicates. […] FIG. 1F provides methylation levels of individual CpGs in the Snrpn promoter region and the adjacent Dazl locus. Shown is the mean percentage±SD of two biological replicates.
To assess whether the dCas9-Tet1 and -Dnmt3a fusion constructs would induce demethylation or de novo methylation, respectively, of specific sequences, we utilized a methylation reporter system previously developed in our laboratory (Stelzer et al., 2015). This reporter system consists of a synthetic methylation-sensing promoter (conserved sequence elements from the promoter of an imprinted gene, Snrpn) that controls the expression of a green fluorescence protein (GFP). […]

“dCas9-Tet1: catalytically inactive Cas9 (dCas9) fused through NLS to the Tet1 catalytic domain, SEQ ID NO: 159; lentivirally expressed with gRNAs” was tested, and the “GFP positive cells among the Cherry positive population” value (with 4 target gRNAs (Snrpn promoter)) was “about 26%” and the “GFP positive cells among the Cherry positive population” value (with a scrambled gRNA) was 1%.
